Laboratory results: PubChem BioAssay (NCI)
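In this assay, cells in 96-well plates receive the compound at five concentrations for 48 hours. Endpoints are linearly interpolated between the surrounding concentrations. The concentration for 50% growth inhibition is given as GI50. TGI denotes the concentration required for complete inhibition of growth.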

Tests used:
Assay in all cases: NCI tumour cell line growth inhibition, 48 h
786-0 renal = test system: 786-0 renal
A498 renal = test system: A498 renal
A549 NSCLC = test system: A549 NSCLC
ACHN renal = test system: ACHN renal
BT-549 breast = test system: BT-549 breast
CAKI-1 renal = test system: CAKI-1 renal
CCRF-CEM leukemia = test system: CCRF-CEM leukemia
COLO 205 colon = test system: COLO 205 colon
DU-145 prostate = test system: DU-145 prostate
EKVX NSCLC = test system: EKVX NSCLC
HCC-2998 colon = test system: HCC-2998 colon
HCT-116 colon = test system: HCT-116 colon
HCT-15 colon = test system: HCT-15 colon
HL-60(TB) leukemia = test system: HL-60(TB) leukemia
HOP-62 NSCLC = test system: HOP-62 NSCLC
HOP-92 NSCLC = test system: HOP-92 NSCLC
HS 578T breast = test system: HS 578T breast
HT29 colon = test system: HT29 colon
IGROV1 ovarian = test system: IGROV1 ovarian
K-562 leukemia = test system: K-562 leukemia
KM12 colon = test system: KM12 colon
LOX IMVI melanoma = test system: LOX IMVI melanoma
M14 melanoma = test system: M14 melanoma
MALME-3M melanoma = test system: MALME-3M melanoma
MCF7 breast = test system: MCF7 breast
MDA-MB-231 breast = test system: MDA-MB-231 breast
MDA-MB-435 = test system: MDA-MB-435
MOLT-4 leukemia = test system: MOLT-4 leukemia
NCI-H226 lung = test system: NCI-H226 lung
NCI-H23 lung = test system: NCI-H23 lung
NCI-H460 lung = test system: NCI-H460 lung
NCI-H522 lung = test system: NCI-H522 lung
NCI/ADR-RES ovarian = test system: NCI/ADR-RES ovarian
OVCAR-3 ovarian = test system: OVCAR-3 ovarian
OVCAR-4 ovarian = test system: OVCAR-4 ovarian
OVCAR-5 ovarian = test system: OVCAR-5 ovarian
OVCAR-8 ovarian = test system: OVCAR-8 ovarian
PC-3 prostate = test system: PC-3 prostate
RPMI-8226 leukemia = test system: RPMI-8226 leukemia
RXF 393 renal = test system: RXF 393 renal
SF-268 CNS = test system: SF-268 CNS
SF-295 CNS = test system: SF-295 CNS
SF-539 CNS = test system: SF-539 CNS
SK-MEL-2 melanoma = test system: SK-MEL-2 melanoma
SK-MEL-28 melanoma = test system: SK-MEL-28 melanoma
SK-MEL-5 melanoma = test system: SK-MEL-5 melanoma
SK-OV-3 ovarian = test system: SK-OV-3 ovarian
SN12C renal = test system: SN12C renal
SNB-19 CNS = test system: SNB-19 CNS
SNB-75 CNS = test system: SNB-75 CNS
SR leukemia = test system: SR leukemia
SW-620 colon = test system: SW-620 colon
T-47D breast = test system: T-47D breast
TK-10 renal = test system: TK-10 renal
U251 CNS = test system: U251 CNS
UACC-257 melanoma = test system: UACC-257 melanoma
UACC-62 melanoma = test system: UACC-62 melanoma
UO-31 renal = test system: UO-31 renal

## Cc1c2cnccc2c(C)c2c1c1cc(CO)ccc1n2C
786-0 renal
  GI50: 302 nM
  TGI: 2660 nM
A498 renal
  GI50: 30.5 nM
  TGI: 169 nM
A549 NSCLC
  GI50: 330 nM
  TGI: 2070 nM
ACHN renal
  GI50: 66.5 nM
  TGI: 1160 nM
BT-549 breast
  GI50: 927 nM
  TGI: 2280 nM
CAKI-1 renal
  GI50: 163 nM
  TGI: 1080 nM
CCRF-CEM leukemia
  GI50: 328 nM
  TGI: 2610 nM
COLO 205 colon
  GI50: 258 nM
  TGI: 1260 nM
DU-145 prostate
  GI50: 288 nM
  TGI: 1530 nM
EKVX NSCLC
  GI50: 325 nM
  TGI: 1290 nM
HCC-2998 colon
  GI50: 465 nM
  TGI: 1930 nM
HCT-116 colon
  GI50: 45.4 nM
  TGI: 651 nM
HCT-15 colon
  GI50: 217 nM
  TGI: 1310 nM
HL-60(TB) leukemia
  GI50: 408 nM
  TGI: 2100 nM
HOP-62 NSCLC
  GI50: 211 nM
  TGI: 2330 nM
HOP-92 NSCLC
  GI50: 382 nM
  TGI: 2630 nM
HS 578T breast
  GI50: 521 nM
  TGI: 3130 nM
HT29 colon
  GI50: 257 nM
  TGI: 2730 nM
IGROV1 ovarian
  GI50: 130 nM
  TGI: 1220 nM
K-562 leukemia
  GI50: 264 nM
  TGI: 1680 nM
KM12 colon
  GI50: 303 nM
  TGI: 1820 nM
LOX IMVI melanoma
  GI50: 255 nM
  TGI: 1210 nM
M14 melanoma
  GI50: 298 nM
  TGI: 1220 nM
MALME-3M melanoma
  GI50: 294 nM
  TGI: 1180 nM
MCF7 breast
  GI50: 203 nM
  TGI: 1370 nM
MDA-MB-231 breast
  GI50: 348 nM
  TGI: 1790 nM
MDA-MB-435
  GI50: 349 nM
  TGI: 1390 nM
MOLT-4 leukemia
  GI50: 286 nM
  TGI: 2380 nM
NCI-H226 lung
  GI50: 109 nM
  TGI: 570 nM
NCI-H23 lung
  GI50: 273 nM
  TGI: 1340 nM
NCI-H460 lung
  GI50: 149 nM
  TGI: 571 nM
NCI-H522 lung
  GI50: 350 nM
  TGI: 1910 nM
NCI/ADR-RES ovarian
  GI50: 187 nM
  TGI: 1930 nM
OVCAR-3 ovarian
  GI50: 295 nM
  TGI: 1420 nM
OVCAR-4 ovarian
  GI50: 299 nM
  TGI: 1200 nM
OVCAR-5 ovarian
  GI50: 244 nM
  TGI: 1180 nM
OVCAR-8 ovarian
  GI50: 178 nM
  TGI: 2450 nM
PC-3 prostate
  GI50: 367 nM
  TGI: 2140 nM
RPMI-8226 leukemia
  GI50: 260 nM
  TGI: 1380 nM
RXF 393 renal
  GI50: 209 nM
  TGI: 1040 nM
SF-268 CNS
  GI50: 268 nM
  TGI: 1690 nM
SF-295 CNS
  GI50: 316 nM
  TGI: 1660 nM
SF-539 CNS
  GI50: 343 nM
  TGI: 1540 nM
SK-MEL-2 melanoma
  GI50: 455 nM
  TGI: 2010 nM
SK-MEL-28 melanoma
  GI50: 384 nM
  TGI: 1560 nM
SK-MEL-5 melanoma
  GI50: 425 nM
  TGI: 1580 nM
SK-OV-3 ovarian
  GI50: 324 nM
  TGI: 1350 nM
SN12C renal
  GI50: 187 nM
  TGI: 1650 nM
SNB-19 CNS
  GI50: 299 nM
  TGI: 2370 nM
SNB-75 CNS
  GI50: 434 nM
  TGI: 1700 nM
SR leukemia
  GI50: 75.2 nM
SW-620 colon
  GI50: 116 nM
  TGI: 1390 nM
T-47D breast
  GI50: 275 nM
  TGI: 3140 nM
TK-10 renal
  GI50: 553 nM
  TGI: 4150 nM
U251 CNS
  GI50: 298 nM
  TGI: 1630 nM
UACC-257 melanoma
  GI50: 292 nM
  TGI: 1680 nM
UACC-62 melanoma
  GI50: 232 nM
  TGI: 1030 nM
UO-31 renal
  GI50: 255 nM
  TGI: 1910 nM
